Here are results for 20 compounds from US20260297105A1, “RAF-MEK PROTEIN COMPLEX MODULATORS AND METHODS OF USE THEREOF” (GANDEEVA THERAPEUTICS, INC., priority 2023, published 2026).

Each structure is given as a SMILES string.

T1 sequence (Q02750 whole entry): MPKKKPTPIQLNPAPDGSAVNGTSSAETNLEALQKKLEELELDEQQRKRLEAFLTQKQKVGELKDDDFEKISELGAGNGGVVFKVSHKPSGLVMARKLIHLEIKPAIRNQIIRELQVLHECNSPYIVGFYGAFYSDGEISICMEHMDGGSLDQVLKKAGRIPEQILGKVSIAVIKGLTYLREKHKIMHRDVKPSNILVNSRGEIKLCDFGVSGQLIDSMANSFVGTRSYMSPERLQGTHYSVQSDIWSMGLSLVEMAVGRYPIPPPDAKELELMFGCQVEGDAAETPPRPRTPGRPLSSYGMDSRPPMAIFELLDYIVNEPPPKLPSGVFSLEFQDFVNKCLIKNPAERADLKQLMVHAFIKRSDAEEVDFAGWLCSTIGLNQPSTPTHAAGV
T1 sequence (P15056 445-723 partner limits assumed): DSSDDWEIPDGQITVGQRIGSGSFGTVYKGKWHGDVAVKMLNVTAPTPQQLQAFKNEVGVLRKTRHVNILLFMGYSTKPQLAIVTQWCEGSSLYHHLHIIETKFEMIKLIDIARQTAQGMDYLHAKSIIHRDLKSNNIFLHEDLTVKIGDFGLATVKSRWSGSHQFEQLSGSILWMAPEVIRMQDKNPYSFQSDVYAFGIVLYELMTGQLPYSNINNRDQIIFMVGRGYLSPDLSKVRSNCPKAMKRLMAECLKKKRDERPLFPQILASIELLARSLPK

This assay has as its target T1, MEK1 (Homo sapiens, UniProt Q02750).
T1 construct: purchased SignalChem M02-14H
The assay can be described thus: MEK1 kinase cascade assay (ADP-Glo), inhibition of MEK1 kinase activity. In kind it is biochemical. As to conditions: 25 nM BRAF, 6.25 nM MEK1, 0.5 μM ERK, 1 mM ATP; 20 min preincubation, 1 hr at 25° C.; read-out: BRAF ADP Glo kinase assay V3 (IC50). The text has this: Protein expression and purification: BRAF (445-723) with N-term His-tag and C-term StrepII tag was expressed using the Expi293 system (ThermoFisher) and purified using Strep-Tactin® XT-Superflow (IBA) chromatography. ERK1 (full-length) with N-term His-tag was expressed in Rosetta DE3 cells (Millipore) and purified using HisTrap HP (Cytiva) and Superdex 200 (Cytiva) column chromatography. Full-length MEK1 for TR-FRET assays with N-term His-tag was expressed in BL21DE3 cells (ThermoFisher) and purified using HisTrap HP (Cytiva) and Superdex 200 (Cytiva) column chromatography.
Efficacy of exemplary compounds in inhibition of MEK1 kinase activity: The effect of compound MEK1 inhibition was evaluated using an ADP detection system for kinases, such as the ADP-Glo assay (Promega). The MEK1 kinase cascade assay consisted of 9 μL reaction volumes in 384-well white, opaque Optiplates (PerkinElmer). Compounds were prepared from DMSO stocks in assay buffer (10 mM HEPES pH 7.5, 5 mM MgCl2, 2 mM CHAPS, and 1 mM DTT) and preincubated with 25 nM BRAF for 20 mins at 25° C. prior to addition of 6.25 nM MEK1/0.5 μM ERK/1 mM ATP premix to initiate the kinase reaction. Both BRAF and ERK1 were produced in-house, and MEK1 was purchased from SignalChem (M02-14H). DMSO was kept constant at a final concentration of 1%. After a 1 hr incubation at 25° C., conversion of ATP to ADP was detected using ADP-Glo™ reagents according to the manufacturer's protocol. Luminescence was measured using a CLARIOstar microplate reader (BMG). Percent (%) Inhibition was calculated by normalizing to DMSO control (max) and 1 μM Trametinib (min). % inhibition as a function of compound concentration from 2 replicate wells was fit with a 4-parameter logistic curve equation using GraphPad Prism or CDD Vault to derive IC50 values.
In this table, for the BRAF ADP Glo kinase assay, “A” indicates IC50 of less than 5 nM; “B” indicates IC50 of between 5 nM to 50 nM; and “C” indicates IC50 of between 50 nM to 500 nM. “D” indicates IC50 of greater than 500 nM. For the BRAF-MEK TR-FRET assay, “A” indicates EC50 of less than 50 nM; “B” indicates EC50 of between 50 nM to 200 nM; and “C” indicates EC50 of between 200 nM to 1 μM. “D′” indicates EC50 of greater than 1 μM. For the AlphaLisa P-ERK assay, “A” indicates IC50 of less than 1 nM; “B” indicates IC50 of between 1 nM to 10 nM; and “C” indicates IC50 of between 10 nM to 100 nM. “D” indicates IC50 of greater than 100 nM. For the cell viability assay, “A” indicates IC50 of less than 1 nM; “B” indicates IC50 of between 1 nM to 10 nM; and “C” indicates IC50 of between 10 nM to 100 nM. “D” indicates IC50 of greater than 100 nM.
In general terms: ADP-Glo turns the ADP formed in a reaction into a luminescent signal.
One may read the IC50 as the point on the concentration scale where inhibition reaches its midpoint. As to `CNS(=O)(=O)Nc1cccc(CN2Cc3ccc(Oc4cccnc4)cc3OC2=O)c1F` [Compound 61, 3-{[2-fluoro-3-(methylaminosulfonylamino)phenyl]methyl}-7-(3-pyridyloxy)-3,4-dihydro-2H-1,3-benzoxazin-2-one], the IC50 fell in the range of 0.005 to 0.05 µM.
With `O=C1Oc2cc(Oc3cccnc3)ccc2CN1Cc1cccc(NS(=O)(=O)C2CC2)c1F` [Compound 60, (cyclopropylsulfonyl)(2-fluoro-3-{[2-oxo-7-(3-pyridyloxy)-3,4-dihydro-2H-1,3-benzoxazin-3-yl]methyl}phenyl)amine], the IC50 lay in the range of 0.05 to 0.5 µM.
As for `CNS(=O)(=O)Cc1cccc(CN2Cc3ccc(OC(=O)N(C)C)cc3OC2=O)c1F` [Compound 45, 3-(2-fluoro-3-((N-methylsulfamoyl)methyl)benzyl)-2-oxo-3,4-dihydro-2H-benzo[e][1,3]oxazin-7-yl dimethylcarbamate], the figure is more than 0.5 µM; as for `CNS(=O)(=O)Nc1cccc(CN2C(=O)Oc3cc(Oc4ncco4)cnc3[C@H]2C)c1F` (stereo in doubt) [Compound 189, 3-{[2-fluoro-3-(methylaminosulfonylamino)phenyl]methyl}-4-methyl-7-(1,3-oxazol-2-yloxy)-3,4-dihydro-2H-1-oxa-3,5-diazanaphthalen-2-one], 0.05 to 0.5 µM; as for `CNS(=O)(=O)Nc1cccc(CN2Cc3ccc(Oc4ncccn4)cc3OC2=O)c1F` [Compound 157, 3-({2-fluoro-3-[(methylsulfamoyl)amino]phenyl}methyl)-7-(pyrimidin-2-yloxy)-3,4-dihydro-2H-1,3-benzoxazin-2-one], 0.005 to 0.05 µM.
Turning to `CNS(=O)(=O)Nc1nccc(CN2C(=O)Oc3cc(Oc4ncc(C)o4)ccc3C23CCC3)c1F` [Compound 180, 3-{[3-fluoro-2-(methylaminosulfonylamino)-4-pyridyl]methyl}-7-(5-methyl-1,3-oxazol-2-yloxy)-2H,3H-spiro[1,3-benzoxazine-4,1′-cyclobutan]-2-one], the IC50 is 0.005 to 0.05 µM.
As for `CNS(=O)(=O)Nc1cccc(CN2Cc3cc(C)c(Oc4ncccn4)cc3OC2=O)c1F` [Compound 111, 3-({2-fluoro-3-[(methylsulfamoyl)amino]phenyl}methyl)-6-methyl-7-(pyrimidin-2-yloxy)-3,4-dihydro-2H-1,3-benzoxazin-2-one], the figure is 0.005 to 0.05 µM.
As to `CNS(=O)(=O)Nc1ccc(F)c(CN2C(=O)Oc3cc(Oc4cccnn4)ccc3C23CCC3)c1F` [Compound 197, 3-{[2,6-difluoro-3-(methylaminosulfonylamino)phenyl]methyl}-7-(3-pyridazinyloxy)-2H,3H-spiro[1,3-benzoxazine-4,1′-cyclobutan]-2-one], the IC50 lay in the range of 0.05 to 0.5 µM.
As for `O=C1Oc2cc(Oc3cccnn3)ccc2CN1Cc1cccc(N2CCOC2=O)c1F` [Compound 26, 3-{[2-fluoro-3-(2-oxo-1,3-oxazolidin-3-yl)phenyl]methyl}-7-(3-pyridazinyloxy)-3,4-dihydro-2H-1,3-benzoxazin-2-one], the figure is 0.05 to 0.5 µM; as for `CNS(=O)(=O)Nc1nccc(CN2C(=O)Oc3cc(Oc4nc(C)co4)ccc3C23CCC3)c1F` [Compound 182, 3-{[3-fluoro-2-(methylaminosulfonylamino)-4-pyridyl]methyl}-7-(4-methyl-1,3-oxazol-2-yloxy)-2H,3H-spiro[1,3-benzoxazine-4,1′-cyclobutan]-2-one], 0.005 to 0.05 µM.
For `CNS(=O)(=O)Nc1cccc(CN2C(=O)Oc3cc(Oc4cnccn4)ccc3C23COC3)c1F` [Compound 70, 3-({2-fluoro-3-[(methylsulfamoyl)amino]phenyl}methyl)-7-(pyrazin-2-yloxy)-2,3-dihydrospiro[1,3-benzoxazine-4,3′-oxetan]-2-one] the value was 0.05 to 0.5 µM; for `CNS(=O)(=O)Nc1nccc(CN2C(=O)Oc3cc(Oc4ncco4)cnc3[C@@H]2C)c1F` (stereo in doubt) [Compound 190, 3-{[3-fluoro-2-(methylaminosulfonylamino)-4-pyridyl]methyl}-4-methyl-7-(1,3-oxazol-2-yloxy)-3,4-dihydro-2H-1-oxa-3,5-diazanaphthalen-2-one], 0.005 to 0.05 µM; for `CNS(=O)(=O)Nc1cccc(CN2C(=O)Oc3c(ccc(Oc4ncccn4)c3F)[C@@H]2C)c1F` (single isomer, unassigned) [Compound 92, (S)-8-fluoro-3-({2-fluoro-3-(methylsulfamoyl)amino]phenyl}methyl)-4-methyl-7-(pyrimidin-2-yloxy)-3,4-dihydro-2H-1,3-benzoxazin-2-one or (R)-8-fluoro-3-({2-fluoro-3-(methylsulfamoyl)amino]phenyl}methyl)-4-methyl-7-(pyrimidin-2-yloxy)-3,4-dihydro-2H-1,3-benzoxazin-2-one], 0.005 to 0.05 µM.
For `CNS(=O)(=O)Nc1cccc(CN2Cc3ccc(OC4COC4)cc3OC2=O)c1F` [Compound 98, 3-{[2-fluoro-3-(methylaminosulfonylamino)phenyl]methyl}-7-(3-oxetanyloxy)-3,4-dihydro-2H-1,3-benzoxazin-2-one] the value was more than 0.5 µM.
In the case of `CNS(=O)(=O)Nc1cccc(CN2C(=O)Oc3c(ccc(Oc4ncccn4)c3F)[C@H]2C)c1F` (single isomer, unassigned) [Compound 93, (R)-8-fluoro-3-({2-fluoro-3-(methylsulfamoyl)amino]phenyl}methyl)-4-methyl-7-(pyrimidin-2-yloxy)-3,4-dihydro-2H-1,3-benzoxazin-2-one or (S)-8-fluoro-3-({2-fluoro-3-(methylsulfamoyl)amino]phenyl}methyl)-4-methyl-7-(pyrimidin-2-yloxy)-3,4-dihydro-2H-1,3-benzoxazin-2-one], the IC50 is 0.005 to 0.05 µM.
For `CNS(=O)(=O)Nc1cc(F)cc(CN2C(=O)Oc3cc(Oc4ncco4)ccc3C23CCC3)c1F` [Compound 195, 3-{[2,5-difluoro-3-(methylaminosulfonylamino)phenyl]methyl}-7-(1,3-oxazol-2-yloxy)-2H,3H-spiro[1,3-benzoxazine-4,1′-cyclobutan]-2-one] the value was 0.05 to 0.5 µM; for `CNS(=O)(=O)Cc1cccc(CN2C(=O)Oc3cc(OC(=O)N(C)C)ccc3C23COC3)c1F` [Compound 47, 3-({2-fluoro-3-[(methylsulfamoyl)methyl]phenyl}methyl)-2-oxo-2,3-dihydrospiro[1,3-benzoxazine-4,3′-oxetan]-7-yl N,N-dimethylcarbamate], 0.05 to 0.5 µM; for `CNS(=O)(=O)Nc1cccc(CN2C(=O)Oc3cc(Oc4ccccn4)ccc3C23COC3)c1F` [Compound 50, 3-({2-fluoro-3-[(methylsulfamoyl)amino]phenyl}methyl)-7-(pyridin-2-yloxy)-2,3-dihydrospiro[1,3-benzoxazine-4,3′-oxetan]-2-one], 0.005 to 0.05 µM.
For `CN(C)C(=O)Oc1ccc2c(c1)OC(=O)N(Cc1cccc(N3CCOC3=O)c1F)C2` [Compound 27, dimethylamino-3-{[2-fluoro-3-(2-oxo-1,3-oxazolidin-3-yl)phenyl]methyl}-2-oxo-3,4-dihydro-2H-1,3-benzoxazin-7-ylformylate] the value was more than 0.5 µM.
As for `CNS(=O)(=O)Nc1cccc(CN2C(=O)Oc3c(ccc(Oc4ncco4)c3F)[C@H]2C)c1F` (single isomer, unassigned) [Compound 90, (R)-8-fluoro-3-({2-fluoro-3-(methylsulfamoyl)amino]phenyl}methyl)-4-methyl-7-(1,3-oxazol-2-yloxy)-3,4-dihydro-2H-1,3-benzoxazin-2-one or (S)-8-fluoro-3-({2-fluoro-3-(methylsulfamoyl)amino]phenyl}methyl)-4-methyl-7-(1,3-oxazol-2-yloxy)-3,4-dihydro-2H-1,3-benzoxazin-2-one], the figure is 0.005 to 0.05 µM.
